# Measurements as given in patent US7307071B2, “RAF-MEK-ERK pathway inhibitors to treat cancer” (Onyx Pharmaceuticals, Inc, priority 2001, dated 2007).
# pIC50: −log10 of the molar value.
# Tests used:
# [1] = test system: all four cell lines: Ba/F3, P210 WT, P210 T315I, P210 E255K; test: Cell proliferation (cell viability) by trypan blue dye exclusion; type: cell-based, mouse; settings: FIG. 4, 3 experiments, read-out: IC50 for inhibition of cell proliferation
# Protocol: Briefly, cell culture methods were as follows. […] Cell proliferation assays were performed as follows.
# [2] = test system: phospho-ERK in Ba/F3 cells expressing wild type Bcr-Abl; test: ERK phosphorylation, Western blot with phospho-ERK antibody; type: cell-based, mouse; settings: FIG. 5
# Protocol: (§1) The experiment was conducted as follows. On day 1, 2×10^6 cells were plated in a 6 well plate in medium containing 10% serum, and on day 2 the cells were treated with the relevant compound dissolved in DMSO. The final DMSO concentration was 0.2%. Next, the cells were spun down, and washed once with 2 ml of ice-cold phosphate buffered saline, and then lysed with […] buffer. Next, 50 ul of cell lysates was electrophoresed in 10% Tris-Glycine gels, followed by treatment with a 1° antibody which was a phospho-ERK polyclonal rabbit antibody used at 1:1000 dilution. It was obtained from Cell Signaling. The 1° was followed by a 2° antibody which was goat anti-rabbit horse radish peroxidase antibody, and it was used at a dilution of 1:1000. Lastly, Westerns were developed with an ECL kit obtained from Amersham.
# [3] = test system: phospho-ERK in Ba/F3 cells expressing Bcr-Abl imatinib resistant mutants E255K and T315I; test: as above; type: cell-based, mouse; settings: FIG. 5
# Protocol: as §1
# [4] = test system: chronic myelogenous leukemia; settings: CML patients, remissions achieved during blast phase; cited from earlier work
pIC50 [1],Compound,effect on phospho-ERK levels [2],effect on phospho-ERK levels [3],time to relapse after remission [4]
5.10 to 5.40,CNC(=O)c1cc(Oc2ccc(NC(=O)Nc3ccc(Cl)c(C(F)(F)F)c3)cc2)ccn1 [BAY 43-9006],decrease in phospho-ERK levels,decrease in phospho-ERK levels,–
–,Cc1ccc(NC(=O)c2ccc(CN3CCN(C)CC3)cc2)cc1Nc1nccc(-c2cccnc2)n1 [imatinib],–,–,2-6 months
